{"source": "patent US4139504A", "about": "“Novel nonapeptides, intermediates therefor, and compositions and methods employing said nonapeptides” (priority 1977, dated 1979)", "origin": "cited, not measured here", "key": {"rat": {"system": "rat", "conditions": "injected directly into the brain of the rat"}, "[1]": {"system": "brain opiate receptor sites"}}}
{"substance": "H--Tyr--Gly--Gly--Phe--Met--OH [methionine enkephalin]", "values": [{"measurement": "analgesic activity", "setting": "rat", "value": "only weak analgesic agent of short duration"}, {"measurement": "binding to partially purified brain opiate receptor sites", "setting": "[1]", "value": "binds stereo-specifically"}]}
